Ten compounds from PubChem BioAssay (NCI) can be followed below.

Test systems include A498 renal; SK-OV-3 ovarian; DMS 273 small cell lung; SR leukemia; DLD-1 colon; SNB-78 CNS; U251 CNS; OVCAR-5 ovarian; HT29 colon; OVCAR-8 ovarian; EKVX NSCLC; DMS 114 small cell lung.
Common to all, as to assay: NCI-60 cell line screen, 48 h

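Dose response: 5 concentrations. Exposure: 48 h. Format: 96-well plates. Endpoint: linear interpolation; highest concentration if not reached. GI50: concentration for 50% inhibition of growth. TGI: concentration producing complete growth inhibition.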 Bounds are passed on as bounds.

With `O=C(NC1CCC[C@H]1OC(=O)c1ccccc1)c1ccccc1` (stereo partly specified), the TGI in the assay with A498 renal, in the assay on SK-OV-3 ovarian, in the assay on DMS 273 small cell lung, with SR leukemia, with DLD-1 colon and in the assay on SNB-78 CNS was above 100 µM in each case. In addition, the TGI with U251 CNS, in the assay with OVCAR-5 ovarian, in the assay with HT29 colon, in the assay with OVCAR-8 ovarian and in the assay with EKVX NSCLC was above 100 µM in each case.

Regarding `NC(=O)NNC/C(Cl)=C(\Cl)C(=O)O`, the TGI in the assay with A498 renal, with SK-OV-3 ovarian, in the assay on DMS 273 small cell lung, with DLD-1 colon, with SNB-78 CNS and with U251 CNS was above 100 µM each time. Moreover, the TGI in the assay with OVCAR-5 ovarian, in the assay on DMS 114 small cell lung, in the assay with HT29 colon, in the assay on OVCAR-8 ovarian and in the assay with EKVX NSCLC was above 100 µM throughout.

As for `CC1C(c2ccccc2)N(C)C(c2ccccc2)C(C)C1(O)c1ccccc1` (stereo unspecified), the TGI in the assay with A498 renal, with SK-OV-3 ovarian, in the assay with DMS 273 small cell lung, in the assay on DLD-1 colon, with SNB-78 CNS and in the assay with U251 CNS was above 100 µM each time. Also, the TGI in the assay with OVCAR-5 ovarian, with DMS 114 small cell lung, in the assay on HT29 colon, in the assay on OVCAR-8 ovarian and with EKVX NSCLC was above 100 µM each time.

Turning to `Cc1cc(-c2ccccc2)nc(Nc2cc3ccccc3[nH]2)n1`, the TGI in the assay with A498 renal, in the assay on SK-OV-3 ovarian, with SR leukemia, with DLD-1 colon, in the assay on SNB-78 CNS and in the assay with U251 CNS was above 100 µM in each case. The TGI in the assay on OVCAR-5 ovarian, with DMS 114 small cell lung, in the assay on HT29 colon, in the assay on OVCAR-8 ovarian and in the assay on EKVX NSCLC was above 100 µM each time.

Regarding `COc1cc(/C=C2\[C@@H]3NC(Cc4c(OC)c(C)c(OC)c(OC)c43)C(=O)N2Cc2ccccc2)c(OC)c(C)c1OC`, the TGI was above 100 µM in the assay with A498 renal; above 100 µM in the assay on SK-OV-3 ovarian; above 100 µM in the assay on DMS 273 small cell lung; 62.8 µM with SR leukemia; above 100 µM in the assay on DLD-1 colon; above 100 µM in the assay on U251 CNS. The TGI in the assay on OVCAR-5 ovarian is above 100 µM; with DMS 114 small cell lung, above 100 µM; with HT29 colon, 68.1 µM; in the assay on OVCAR-8 ovarian, above 100 µM; in the assay with EKVX NSCLC, 90.5 µM.

On to `C=CCC1(CN(C)C)CC/C(=C\c2ccc3c(c2)OCO3)C1=O` (stereo unspecified), for which the TGI in the assay with A498 renal is above 100 µM; with DMS 273 small cell lung, above 100 µM; in the assay on SR leukemia it was above 100 µM; with DLD-1 colon, 81.1 µM; in the assay on SNB-78 CNS, above 100 µM; in the assay with U251 CNS, above 100 µM. The TGI in the assay on OVCAR-5 ovarian is above 100 µM; in the assay on HT29 colon it was above 100 µM; in the assay with OVCAR-8 ovarian, above 100 µM; in the assay on EKVX NSCLC, 66.9 µM.

Regarding `CC1(c2ccc(F)cc2)C2C(=O)NC(=O)C1C(=O)NC2=O` (stereo unspecified), the TGI in the assay with A498 renal, in the assay with SK-OV-3 ovarian, in the assay on DMS 273 small cell lung, in the assay with DLD-1 colon, with SNB-78 CNS and with OVCAR-5 ovarian was above 100 µM in each case. The TGI with DMS 114 small cell lung, with HT29 colon, in the assay on OVCAR-8 ovarian and in the assay with EKVX NSCLC was above 100 µM throughout.

With `C=CC1=C(C)C(/C=c2\[nH]/c(=C/c3[nH]c(CC4NC(=O)C(C)/C4=C\C)c(C)c3CCC(=O)O)c(CC(=O)O)c2C)=NC1=O` (stereo unspecified), the TGI with SK-OV-3 ovarian, in the assay with SR leukemia, with DLD-1 colon, with SNB-78 CNS, in the assay on U251 CNS and in the assay on OVCAR-5 ovarian was above 100 µM throughout. Besides, the TGI in the assay with DMS 114 small cell lung, in the assay with HT29 colon, in the assay with OVCAR-8 ovarian and in the assay with EKVX NSCLC was above 100 µM each time.

Consider `c1ccc2c(N=NSc3ncnc4nc[nH]c34)c3ccccc3nc2c1`, for which the GI50 was 1.13 µM in the assay on A498 renal; 1.38 µM in the assay with SK-OV-3 ovarian; 1.06 µM in the assay with SR leukemia; 1.12 µM with U251 CNS; 1.89 µM in the assay with OVCAR-5 ovarian; 0.398 µM in the assay on HT29 colon. Further, the GI50 with OVCAR-8 ovarian is 1.5 µM; in the assay on EKVX NSCLC it was 2.61 µM. In addition, the TGI with A498 renal was determined as 2.6 µM; in the assay with SK-OV-3 ovarian, 14.2 µM; in the assay on SR leukemia, 8.17 µM; in the assay on U251 CNS it was 10.9 µM; with OVCAR-5 ovarian, 6.3 µM; in the assay on HT29 colon, 2.16 µM. Also, the results for the TGI with OVCAR-8 ovarian and with EKVX NSCLC were 2.96 µM and 12.8 µM, respectively.

As for `Cc1ccc(/C=C2\CCCCC2=O)cc1`, the TGI with A498 renal, in the assay with SK-OV-3 ovarian, with DMS 273 small cell lung, in the assay with DLD-1 colon, in the assay on SNB-78 CNS and in the assay with U251 CNS was above 100 µM in each case. Also, the TGI in the assay on DMS 114 small cell lung, in the assay with HT29 colon, in the assay on OVCAR-8 ovarian and with EKVX NSCLC was above 100 µM each time.
